≈ marks a conversion by molar mass, not a printed value. Like-named read-outs stand apart in the source and are kept apart here.
Assays:
[1] = system: Staphylococcus aureus; settings: compounds of U.S. Pat. Nos. 3,887,557 and 3,950,338; cited from earlier work
[2] = system: Shigella sonnei EW33; assay: In vitro antibacterial activity (MIC), Shigella sonnei EW33; format: cell-based; settings: nutrient broth pH 7.0, 37° C., 48 hours
Description: (§1) (1) In vitro antibacterial activity against 9 strains of bacteria (Gram-positive bacteria: 4 strains, Gram-negative bacteria: 5 strains)
(§2) The test compounds were dissolved in distilled water at a concentration of 1 mg/ml with equimolar NaOH. Then graded concentrations (300, 100, 30, 10, 3 μg/ml, etc.) were made by serial dilution with distilled water. Each solution of test compound (0.5 ml) was pipetted into 4.5 ml of medium in a tube. The media used were Brain Heart Infusion Broth, pH 7.4, for Streptococcus and nutrient broth [10 g of Polypepton, 10 g of Meat Extract, and 2.5 g of NaCl in 1 liter of distilled water], pH 7.0, for the other bacteria. One drop of a bacterial suspension freshly cultured and diluted so as to contain 10 to 100 minimal growing units in the medium was inoculated into the tube. The tubes were incubated at 37° C. for 48 hours. The minimal inhibitor concentration (MIC) was defined as the lowest concentration in which no visible growth of the bacteria was detected.

[3] = system: Staphylococcus aureus Terajima; assay: In vitro antibacterial activity (MIC), Staphylococcus aureus Terajima; format: cell-based
Description: as §1, §2

[4] = system: Staphylococcus aureus No. 10; assay: In vitro antibacterial activity (MIC), Staphylococcus aureus No. 10; format: cell-based
Description: as §1, §2

[5] = system: Staphylococcus aureus; settings: compounds of U.S. Pat. Nos. 3,887,557 and 3,950,338; cited from earlier work; remark: listed apart in the source
[6] = system: Staphylococcus aureus No. 50774; assay: In vitro antibacterial activity (MIC), Staphylococcus aureus No. 50774; format: cell-based
Description: as §1, §2

[7] = system: Proteus vulgaris OX-19; assay: In vitro antibacterial activity (MIC), Proteus vulgaris OX-19; format: cell-based
Description: as §1, §2

[8] = system: Escherichia coli K-12; assay: In vitro antibacterial activity (MIC), Escherichia coli K-12; format: cell-based
Description: as §1, §2

[9] = system: Streptococcus pyogenes A65; assay: In vitro antibacterial activity (MIC), Streptococcus pyogenes A65; format: cell-based; settings: Brain Heart Infusion Broth pH 7.4, 37° C., 48 hours
Description: as §1, §2

[10] = system: Escherichia coli P-5101; assay: In vitro antibacterial activity (MIC), Escherichia coli P-5101; format: cell-based
Description: as §1, §2

[11] = system: Staphylococcus aureus No. 50774; assay: In vivo efficacy against the intravenous infection of mice by Staphylococcus aureus No. 50774; settings: NO.50774, 336 h, male ddY mice, iv infection 6 LD50, oral, twice (5 minutes and 6 hours after infection), survival after 2 weeks
Description: (2) in vivo efficacy against the intravenous infection of mice by Staphylococcus aureus No. 50774
(§3) Each group of 8 male mice (ddY strain, approximately 20 g) was intravenously infected with 6 LD50 of Staphylococcus aureus No. 50774 in 0.85% saline. The test compounds were each suspended in 0.2% carboxymethyl cellulose and administered orally in graded doses (200, 100, 50, 25, 12.5, 6.3, 3.1 mg/kg, etc.) to the infected mice twice, about 5 minutes and 6 hours after infection. Survival rates were determined after 2 weeks and the ED50 was calculated in accordance with Probit method.

[12] = system: Streptococcus pyogenes A65; assay: In vivo efficacy against the intraperitoneal infection of mice by Streptococcus pyogenes A65; settings: A65, 336 h, male ddY mice, ip infection 4 LD50, oral, twice (5 minutes and 6 hours after infection), survival after 2 weeks
Description: as §3
(3) In vivo efficacy against the intraperitoneal infection of mice by Streptococcus pyogenes A65
Each group of 8 male mice (ddY strain, approximately 20 g) was intraperitoneally infected with 4 LD50 of Streptococcus pyogenes A65 suspended in Brain Heart Infusion Broth. The subsequent procedures were the same as those described in (2).

[13] = system: Salmonella typhimurium S-9; assay: In vitro antibacterial activity (MIC), Salmonella typhimurium S-9; format: cell-based; settings: Salmonella enterica
Description: as §1, §2

[14] = system: Escherichia coli P-5101; assay: In vivo efficacy against the intraperitoneal infection of mice by Escherichia coli p-5101; settings: P5101, 336 h, male ddY mice, ip infection 9 LD50, 4% gastric mucin, oral, twice (5 minutes and 6 hours after infection), survival after 2 weeks
Description: as §3
(4) in vivo efficacy against the intraperitoneal infection of mice by Escherichia coli p-5101
Each group of 8 male mice (ddY strain, approximately 20 g) was intraperitoneally infected with 9 LD50 of Escherichia coli p-5101 suspended in Trypto-Soy Broth supplemented with 4% gastric mucin. The subsequent procedures were the same as those described in (2).

[15] = system: Gram-positive and Gram-negative bacteria; assay: Antibacterial activity against Gram-positive and Gram-negative bacteria (summary statement); settings: in words
[16] = in vivo; settings: mouse, in vivo, female ddY mice, Behrens-Kaerber method
From the text: (§4) (5) acute toxicity in mice
(§5) Female ddY strain mice, weighing 25 to 33 g, were used. Test compounds were suspended in 0.2% carboxymethyl cellulose for oral administration, and dissolved in NaOH solution (final pH 8.8-9.2) for intravenous administration.

[17] = system: mice; assay: in vivo
From the text: as §4, §5

[18] = system: Staphylococcus aureus; settings: Antimicrob. Agents Chemother.; cited from earlier work
[19] = Staphylococcus aureus Terajima, nutrient broth pH 7.0, 37° C., 48 hours, read-out: MIC
[20] = Staphylococcus aureus No. 10, nutrient broth pH 7.0, 37° C., 48 hours, read-out: MIC
[21] = Staphylococcus aureus, NO.50774, 48 h, pH 7
[22] = Proteus vulgaris, OX19, 48 h, pH 7
[23] = Escherichia coli, K12, 48 h, pH 7
[24] = P5101, Escherichia coli P-5101, nutrient broth pH 7.0, 37° C., 48 hours, read-out: MIC
[25] = oral, 7 days, read-out: LD50 (oral administration)
[26] = Escherichia coli, P5101, 48 h, pH 7
[27] = Staphylococcus aureus No. 50774, nutrient broth pH 7.0, 37° C., 48 hours, read-out: MIC
[28] = OX19, Proteus vulgaris OX-19, nutrient broth pH 7.0, 37° C., 48 hours, read-out: MIC
[29] = K12, Escherichia coli K-12, nutrient broth pH 7.0, 37° C., 48 hours, read-out: MIC

SMILES | in vitro activities against Staphylococcus aureus [1] | MIC [2] [µg/mL] | MIC [3, 19] [µg/mL] | MIC [4, 20] [µg/mL] | in vivo activities against Staphylococcus aureus [5] | MIC [6, 21] [µg/mL] | MIC [7, 22] [µg/mL] | MIC [8, 23] [µg/mL] | MIC [9] [µg/mL] | MIC [10, 24] [µg/mL] | ED50 [11] [mg/kg] | ED50 [12] [mg/kg] | MIC ([13]; TYPHIMURIUM, 48 h, pH 7) [µg/mL] | ED50 [14] [mg/kg] | LD50 at 168 h [16, 25] [mg/kg] | MIC [10, 26] [µg/mL] | effect on systemic infection by Staphylococcus aureus [18] | MIC [6, 27] [µg/mL] | MIC [7, 28] [µg/mL] | MIC [8, 29] [µg/mL] | also measured
CCn1cc(C(=O)O)c(=O)c2cnc(N3CCN(Cc4ccccc4)CC3)nc21 [Compound 1, 2-(4-Benzyl-1-piperazinyl)-8-ethyl-5,8-dihydro-5-oxopyrido[2,3-d]-pyrimidine-6-carboxylic acid] | relatively strong | 3 (≈ 7.62 µM) | 10 (≈ 25.4 µM) | 10 (≈ 25.4 µM) | weak | 3 (≈ 7.62 µM) | 3 (≈ 7.62 µM) | 3 (≈ 7.62 µM) | 100 (≈ 254 µM) | 10 (≈ 25.4 µM) | ~50 | > 100 | 3 (≈ 7.62 µM) |  |  |  |  |  |  |  | 
CCn1cc(C(=O)O)c(=O)c2cnc(N3CCN(Cc4ccc(N)cc4)CC3)nc21 [Compound AT-1826, 2-[4-(p-Aminobenzyl)-1-piperazinyl]-8-ethyl-5,8-dihydro-5-oxopyrido[2,3-d]pyrimidine-6-carboxylic acid] |  | 1 (≈ 2.45 µM) |  |  |  | 1 (≈ 2.45 µM) | 3 (≈ 7.34 µM) | 1 (≈ 2.45 µM) | 30 (≈ 73.4 µM) |  | 7.2 | 47.7 | 3 (≈ 7.34 µM) | 35.6 | > 2000 | 3 (≈ 7.34 µM) |  |  |  |  | MIC ([3]; Staphylococcus aureus, 48 h, pH 7): 3 µg/mL (≈ 7.34 µM); MIC ([4]; Staphylococcus aureus, NO.10, 48 h, pH 7): 3 µg/mL (≈ 7.34 µM); antibacterial activities against Gram-positive and Gram-negative bacteria [15]: excellent antibacterial activities; LD50 at 168 h ([16]; iv, NaOH solution final pH 8.8-9.2, 7 days, read-out: LD50 (intravenous administration)): 354 mg/kg; toxicity ([17]; in words): low toxicity
CCn1cc(C(=O)O)c(=O)c2cnc(N3CCNCC3)nc21 [Compound PPA, 2-(1-piperazinyl)-8-ethyl-5,8-dihydro-5-oxopyrido [2,3-d]pyrimidine-6-carboxylic acid] |  | 1 (≈ 3.3 µM) | 30 (≈ 98.9 µM) | 10 (≈ 33 µM) |  |  | 3 (≈ 9.89 µM) | 1 (≈ 3.3 µM) | 100 (≈ 330 µM) |  | 238 | > 100 | 1 (≈ 3.3 µM) | 21.2 |  | 1 (≈ 3.3 µM) | only extremely weak effect | 10 (≈ 33 µM) |  |  | 
CCn1cc(C(=O)O)c(=O)c2cnc(N3CCCC3)nc21 [Compound PA, 2-pyrrolidino-8-ethyl-5,8-dihydro-5-oxopyrido [2,3-d]pyrimidine-6-carboxylic acid] |  | 3 (≈ 10.4 µM) | 10 (≈ 34.7 µM) | 10 (≈ 34.7 µM) |  |  |  |  | 300 (≈ 1040 µM) | 10 (≈ 34.7 µM) | > 200 | > 100 | 3 (≈ 10.4 µM) | 36.6 | > 2000 |  | only extremely weak effect | 10 (≈ 34.7 µM) | 1 (≈ 3.47 µM) | 1 (≈ 3.47 µM) | LD50 (intravenous administration) ([17]; female ddY mice, iv, NaOH solution final pH 8.8-9.2, 7 days, Behrens-Kaerber method): 268 mg/kg
CCn1cc(C(=O)O)c(=O)c2cnc(N3CCN(Cc4ccc(Cl)cc4)CC3)nc21 [Compound 3, 2-[4-(p-Chlorobenzyl)-1-piperazinyl]-8-ethyl-5,8-dihydro-5-oxopyrido[2,3-d]pyrimidine-6-carboxylic acid] | relatively strong | 3 (≈ 7.01 µM) | 10 (≈ 23.4 µM) | 10 (≈ 23.4 µM) | weak | 3 (≈ 7.01 µM) |  |  | 30 (≈ 70.1 µM) | 30 (≈ 70.1 µM) | > 100 | > 100 |  |  |  |  |  |  | 10 (≈ 23.4 µM) | 10 (≈ 23.4 µM) | MIC ([13]; Salmonella typhimurium S-9, nutrient broth pH 7.0, 37° C., 48 hours, read-out: MIC): 10 µg/mL (≈ 23.4 µM)
CCn1cc(C(=O)O)c(=O)c2cnc(N3CCN(Cc4ccc(OC)cc4)CC3)nc21 [Compound 2, 2-[4-(p-Methoxybenzyl)-1-piperazinyl]-8-ethyl-5,8-dihydro-5-oxopyrido[2,3-d]pyrimidine-6-carboxylic acid] | relatively strong | 3 (≈ 7.08 µM) | 10 (≈ 23.6 µM) | 10 (≈ 23.6 µM) | weak | 3 (≈ 7.08 µM) |  | 3 (≈ 7.08 µM) | 100 (≈ 236 µM) | 10 (≈ 23.6 µM) | 54.5 | > 100 | 3 (≈ 7.08 µM) |  |  |  |  |  | 10 (≈ 23.6 µM) |  | 
